US10017511B2, “Pyrazolopyrimidinones for the treatment of impotence and process for the preparation thereof” (COUNCIL OF SCIENTIFIC & INDUSTRIAL RESEARCH, priority 2014, dated 2018)
pIC50: −log10 of the molar value.

Experiments:
[1] = target: human PDE5A (Homo sapiens, UniProt O76074); assay: PDE5 enzyme inhibitory assay (PDE Glo Phosphodiesterase Assay)
Procedure: The assays were performed by following the manufacturer recommended protocol.
Data analysis was performed with GraphPad Prism®, version 5.00, for Windows using a sigmoidal dose-response (variable slope) equation. Each point represents an average of two replicates per concentration.

[2] = test system: conscious rabbit (length of uncovered penile mucosa); assay: In vivo efficacy, conscious rabbit model of penile erection; details: 3 mg/kg intravenous, SNP 0.2 mg/kg 5 min later, measured for an hour, SNP alone values subtracted
Procedure: . SNP alone was also used as a control and the values obtained were subtracted from both the molecules).
Nitric oxide is the main neurotransmitter which mediates smooth muscle relaxation by activating the guanylate cyclise during penile erection, which in turn increases the cGMP level.
This solution was injected into the ear vein of a group of five healthy male rabbit (3-3.5 kg weight) in a volume of 0.5 ml/kg. The event was followed 5 minutes later by another equal volume saline injection containing Sodium nitroprusside (0.2 mg/kg), which acts as a donor of Nitric oxide (NO). Length of uncovered penile mucosa was measured with a sliding caliper at different time points for an hour after administration of the test compounds. The area under the curve (AUC) was calculated by Graph Pad Software. Controls experiments were performed with the SNP alone injections. […]

SMILES | pIC50 [1] | area under the curve (AUC) of length of uncovered penile mucosa [2]
CCCc1nn(C)c2c(=O)[nH]c(-c3cc(S(=O)(=O)N4CCC(=O)CC4)ccc3OCC)nc12 [Compound Aa, 5-(2-ethoxy-5-((4-oxopiperidin-1-yl)sulfonyl)phenyl)-1-methyl-3-propyl-1H-pyrazolo[4,3-d]pyrimidin-7(6H)-one] | 9.10 | 722
CCCc1nn(C)c2c(=O)[nH]c(-c3cc(S(=O)(=O)N4CCC(O)CC4)ccc3OCC)nc12 [Compound Ab, 5-(2-ethoxy-5-((4-hydroxypiperidin-1-yl)sulfonyl)phenyl)-1-methyl-3-propyl-1H-pyrazolo[4,3-d]pyrimidin-7(6H)-one] | 8.32 | 
CCCc1nn(C)c2c(=O)[nH]c(-c3cc(S(=O)(=O)N4CCN(C)CC4)ccc3OCC)nc12 [Sildenafil, reference compound] |  | 330
